Results from patent publication US20250099634A1, “METHOD OF TREATING CANCER” (Novartis AG, priority 2023, published 2025).

Key:
[1] = tested on: Grade 2 and Grade 3 advanced GEP-NET; test: NETTER-2 best overall response, ORR and DCR, central review using RECIST 1.1; type: in vivo, human; details: for ORR: central assessment
Excerpt: Objective Response Rate (ORR) will be calculated as the rate of patients with a best overall response of partial response (PR) or complete response (CR). Response duration will be calculated from the time of initial response until documented tumor progression. The Duration of Response (DOR) is defined as the time from initially meeting the criteria for response (CR or PR) until the time of progression by RECIST or death due to underlying disease. DOR will be reported descriptively for each group without comparison between groups.
Overall response rate (ORR) is defined as the proportion of subjects with best overall response (BOR) of complete response (CR) or partial response (PR), as per central review and according to RECIST 1.1.
ORR will be calculated based on the FAS and according to the ITT principle. ORR and its 95% confidence interval will be presented by treatment group. The Cochran-Mantel-Haenszel chi-square test, stratified by the randomization stratification factors, will be used to compare ORR between the two treatment groups, at the 1-sided 2.5% level of significance. As a supportive analysis, ORR as per local review will be presented by treatment group, along with 95% confidence intervals.
More precisely, it counts the presence of at least one confirmed CR or confirmed PR or SD. The DCR will be calculated based on FAS according to the ITT principle. DCR and its 95% confidence interval will be presented by treatment group. The Cochrane-Mantel-Haenszel chi-square test, stratified by the randomization stratification factors, will be used to compare DCR between the two treatment groups, at the one-sided 2.5% level of significance. The p-value to be generated using the Cochrane-Mantel-Haenszel chi-square test is considered nominal, and not to be considered confirmatory as it is not part of the testing strategy. The SAP will advise on how to proceed in case of few events in any stratum.

[2] = NETTER-2 subject disposition: discontinuation of randomized treatment phase (Full Analysis Set); type: in vivo, human
Excerpt: The discontinuation of either study treatments in both arms (Lutathera or octreotide long-acting) is not a reason for patient's withdrawal either from the clinical/tumor assessments until tumor progression, or for early study termination. However, in case of a patient's withdrawal from the clinical/tumor assessments or early study termination (based on either the patient's or the Investigator's decision), patients will undergo all exams scheduled for the End of Treatment (EOT) visit.
The Full Analysis Set (FAS) comprises all subjects to whom study treatment has been assigned by randomization. According to the intent to treat principle, subjects will be analyzed according to the treatment and strata they have been assigned to during the randomization procedure.

[3] = healthy subjects, 20 mg and 60 mg; cited from earlier work
[4] = NETTER-1 control arm, high dose (60 mg); cited from earlier work
[5] = NETTER-2 serious adverse events in the randomized treatment period (Safety Set)
Excerpt: All adverse events (AEs), whether or not spontaneously reported by the patient, will be recorded starting from the signing of the ICF until the end of the Treatment Phase. Safety summaries (tables, figures) include only data from the on-treatment period with the exception of baseline data which will also be summarized where appropriate (e.g. change from baseline summaries). In addition, a separate summary for death including on treatment and post treatment deaths will be provided. In particular, summary tables for adverse events (AEs) will summarize only on-treatment events, with a start date during the on-treatment period (treatment-emergent AEs).
Separate summaries will be provided for study medication related adverse events, death, serious adverse events, other significant adverse events leading to discontinuation and adverse events leading to dose adjustment.

[6] = central review, Full Analysis Set
[7] = All grades, randomized treatment period, Safety Set
[8] = Grade >=3, randomized treatment period, Safety Set
[9] = randomized treatment period, Safety Set

With `C[C@@H](O)[C@@H]1NC(=O)[C@H](CCCCN)NC(=O)[C@@H](Cc2c[nH]c3ccccc23)NC(=O)[C@H](Cc2ccccc2)NC(=O)[C@@H](NC(=O)[C@H](N)Cc2ccccc2)CSSC[C@@H](C(=O)N[C@H](CO)[C@@H](C)O)NC1=O` [Octreotide LAR, octreotide] the ORR ([1]; listed as High-dose Octreotide) was 9.3%, the ORR ([1]; listed as high-dose Octreotide) was 9.3% (3.8%, 18.3%) for Lutathera vs. high-dose and the “Best Overall Response: Complete Response (CR)” value [1, 6] was 0 n (%). The “Best Overall Response: Non-CR/Non-PD” value [1, 6] was 1 (1.3) n (%), the “Best Overall Response: Partial Response (PR)” value [1, 6] was 7 (9.3) n (%) and the “Best Overall Response: Progressive Disease (PD)” value [1, 6] was 14 (18.7) n (%). For the same compound, the “Best Overall Response: Unknown” value [1, 6] was 11 (14.7) n (%), the “Overall Response Rate (ORR: CR + PR)” value [1, 6] was 7 (9.3) n (%) and the “Reason for End of Randomized Treatment Phase: Adverse Event” value ([2]; Full Analysis Set) was 1 (1.3) n (%). For the same compound, the “Reason for End of Randomized Treatment Phase: Death” value ([2]; Full Analysis Set) was 4 (5.3) n (%), the “Reason for End of Randomized Treatment Phase: Progressive Disease” value ([2]; Full Analysis Set) was 44 (58.7) n (%) and the “Treatment discontinuation due to adverse event” value ([2]; randomized period) was 1.3%. The “discontinuation for progressive disease” value ([2]; randomized period) was 58.7%, the “plasma exposure vs dose” value [3] was “dose-proportional” and the side effects [4] was “without notable side effects”. The “Fatal SAEs” value [5, 7] was 2 (2.7) n (%), the “Fatal SAEs Related to Any Treatment” value [5, 7] was 0 n (%) and the “Fatal SAEs Related to Octreotide” value [5, 7] was 0 n (%). The “SAEs Related to Any Treatment” value [5, 7] was 1 (1.4) n (%), the “SAEs Related to Octreotide” value [5, 7] was 1 (1.4) n (%) and the “Serious adverse event: Abdominal pain” value [5, 7] was 0 n (%). For the same compound, the “Serious adverse event: Abdominal sepsis” value [5, 7] was 1 (1.4) n (%), the “Serious adverse event: Acute coronary syndrome” value [5, 7] was 1 (1.4) n (%) and the “Serious adverse event: Acute kidney injury” value [5, 7] was 1 (1.4) n (%). For the same compound, the “Serious adverse event: Anaemia” value [5, 7] was 1 (1.4) n (%), the “Serious adverse event: Ascites” value [5, 7] was 1 (1.4) n (%) and the “Serious adverse event: Blood bilirubin increased” value [5, 7] was 1 (1.4) n (%). The “Serious adverse event: Carcinoid heart disease” value [5, 7] was 1 (1.4) n (%), the “Serious adverse event: Carcinoid syndrome” value [5, 7] was 1 (1.4) n (%) and the “Serious adverse event: Diarrhoea” value [5, 7] was 1 (1.4) n (%). For the same compound, the “Serious adverse event: Femur fracture” value [5, 7] was 1 (1.4) n (%), the “Serious adverse event: Gastroenteritis” value [5, 7] was 1 (1.4) n (%) and the “Serious adverse event: Gastrointestinal stoma complication” value [5, 7] was 0 n (%). For the same compound, the “Serious adverse event: Generalised oedema” value [5, 7] was 1 (1.4) n (%), the “Serious adverse event: Hip fracture” value [5, 7] was 1 (1.4) n (%) and the “Serious adverse event: Hyperglycaemia” value [5, 7] was 1 (1.4) n (%). The “Serious adverse event: Hypertension” value [5, 7] was 1 (1.4) n (%), the “Serious adverse event: Hypoalbuminaemia” value [5, 7] was 1 (1.4) n (%) and the “Serious adverse event: Intestinal obstruction” value [5, 7] was 1 (1.4) n (%). The “Serious adverse event: Jaundice” value [5, 7] was 1 (1.4) n (%), the “Serious adverse event: Lower gastrointestinal haemorrhage” value [5, 7] was 1 (1.4) n (%) and the “Serious adverse event: Metabolic encephalopathy” value [5, 7] was 1 (1.4) n (%). The “Serious adverse event: Oedema peripheral” value [5, 7] was 1 (1.4) n (%), the “Serious adverse event: Pleurisy” value [5, 7] was 1 (1.4) n (%) and the “Serious adverse event: Pyrexia” value [5, 7] was 0 n (%). For the same compound, the “Serious adverse event: Small intestinal obstruction” value [5, 7] was 0 n (%), the “Serious adverse event: Tumour lysis syndrome” value [5, 7] was 1 (1.4) n (%) and the “Fatal SAEs” value [5, 8] was 2 (2.7) n (%). For the same compound, the “Fatal SAEs Related to Any Treatment” value [5, 8] was 0 n (%), the “Fatal SAEs Related to Octreotide” value [5, 8] was 0 n (%) and the “SAEs Related to Any Treatment” value [5, 8] was 1 (1.4) n (%). The “SAEs Related to Octreotide” value [5, 8] was 1 (1.4) n (%), the “Serious adverse event: Abdominal pain” value [5, 8] was 0 n (%) and the “Serious adverse event: Abdominal sepsis” value [5, 8] was 1 (1.4) n (%). The “Serious adverse event: Acute coronary syndrome” value [5, 8] was 0 n (%), the “Serious adverse event: Acute kidney injury” value [5, 8] was 1 (1.4) n (%) and the “Serious adverse event: Anaemia” value [5, 8] was 1 (1.4) n (%). For the same compound, the “Serious adverse event: Ascites” value [5, 8] was 1 (1.4) n (%), the “Serious adverse event: Blood bilirubin increased” value [5, 8] was 1 (1.4) n (%) and the “Serious adverse event: Carcinoid heart disease” value [5, 8] was 1 (1.4) n (%). The “Serious adverse event: Carcinoid syndrome” value [5, 8] was 1 (1.4) n (%), the “Serious adverse event: Diarrhoea” value [5, 8] was 1 (1.4) n (%) and the “Serious adverse event: Femur fracture” value [5, 8] was 0 n (%). The “Serious adverse event: Gastroenteritis” value [5, 8] was 1 (1.4) n (%), the “Serious adverse event: Gastrointestinal stoma complication” value [5, 8] was 0 n (%) and the “Serious adverse event: Generalised oedema” value [5, 8] was 1 (1.4) n (%). The “Serious adverse event: Hip fracture” value [5, 8] was 1 (1.4) n (%), the “Serious adverse event: Hyperglycaemia” value [5, 8] was 1 (1.4) n (%) and the “Serious adverse event: Hypertension” value [5, 8] was 1 (1.4) n (%). The “Serious adverse event: Hypoalbuminaemia” value [5, 8] was 1 (1.4) n (%), the “Serious adverse event: Intestinal obstruction” value [5, 8] was 1 (1.4) n (%) and the “Serious adverse event: Jaundice” value [5, 8] was 1 (1.4) n (%). The “Serious adverse event: Lower gastrointestinal haemorrhage” value [5, 8] was 1 (1.4) n (%), the “Serious adverse event: Metabolic encephalopathy” value [5, 8] was 1 (1.4) n (%) and the “Serious adverse event: Oedema peripheral” value [5, 8] was 1 (1.4) n (%). The “Serious adverse event: Pleurisy” value [5, 8] was 1 (1.4) n (%), the “Serious adverse event: Pyrexia” value [5, 8] was 0 n (%) and the “Serious adverse event: Small intestinal obstruction” value [5, 8] was 0 n (%). For the same compound, the “Serious adverse event: Tumour lysis syndrome” value [5, 8] was 1 (1.4) n (%), the “Incidence of SAEs: Small intestinal obstruction” value ([5]; most frequent SAE, summary table) was 0 (%) and the “Serious AEs” value ([5]; randomized treatment period) was 20.5%. For the same compound, the “Serious AEs, Treatment-related” value ([5]; randomized treatment period) was 1.4%, the “SAE with fatal outcome: Blood bilirubin increased” value [5, 9] was 0 n (%) and the “SAE with fatal outcome: Diarrhoea” value [5, 9] was 1 (1.4) n (%). For the same compound, the “SAE with fatal outcome: Dyspnoea” value [5, 9] was 0 n (%), the “SAE with fatal outcome: Intestinal perforation” value [5, 9] was 0 n (%) and the “SAE with fatal outcome: Tumor Lysis syndrome” value [5, 9] was 1 (1.4) n (%). For the same compound, the “SAEs with fatal outcome” value [5, 9] was 2 (2.7) n (%) and the “SAEs with fatal outcome reported in subjects with primary reason for death = Disease under Study” value [5, 9] was 2 (2.7) n (%).
